In the oligonucleotide strings, read from the 5' end, every base follows the letter of its sugar. An asterisk marks phosphorothioate; unmarked linkages are phosphodiester. Other units and linkages are bracketed, terminal groups are in braces. A string of capitals states the bases alone. e = 2'-O-(2-methoxyethyl) (MOE); [5mC] = 5-methylcytosine
Key:
PPARγ = PPARγ mRNA expression in adipocytes (real-time PCR); format: cell-based, human; conditions: for PPAR gamma mRNA: differentiating adipocytes transfected with oligomeric compound; for PPAR gamma (mRNA expression): adipocytes, 250 nM oligomeric compound, day nine post-transfection, relative to control (1.0)
Glut4 = Glut4 mRNA expression in adipocytes (real-time PCR); format: cell-based, human; conditions: for GLUT4 mRNA: differentiating adipocytes transfected with oligomeric compound; for Glut4 (mRNA expression): adipocytes, 250 nM oligomeric compound, day nine post-transfection, relative to control (1.0)
adipocytes = assay: Triglyceride accumulation assay in adipocytes; format: cell-based, human
aP2 = aP2 mRNA expression in adipocytes (real-time PCR); format: cell-based, human; conditions: for aP2 mRNA / AP2 mRNA: differentiating adipocytes transfected with oligomeric compound; for aP2 mRNA: Table 75; for AP2 (mRNA expression): adipocytes, 250 nM oligomeric compound, day nine post-transfection, relative to control (1.0)
HuVECs = assay: Endothelial tube formation assay in HuVECs; conditions: 75 nM oligomeric compound
HSL = HSL mRNA expression in adipocytes (real-time PCR); format: cell-based, human; conditions: for HSL mRNA: differentiating adipocytes transfected with oligomeric compound; for HSL (mRNA expression): adipocytes, 250 nM oligomeric compound, day nine post-transfection, relative to control (1.0)
[1] = differentiating adipocytes transfected with oligomeric compound, Table 75
[2] = adipocytes, 250 nM oligomeric compound, relative to control (1.0), Table 15
[3] = adipocytes, 250 nM oligomeric compound, relative to control (1.0), Table 16
[4] = differentiating adipocytes transfected with oligomeric compound

Substance	PPAR gamma mRNA (PPARγ; Table 75)	GLUT4 mRNA (Glut4; Table 75)	TG (triglyceride accumulation) (adipocytes; [1])	aP2 mRNA (aP2)	% Activity Relative to UTC (tube formation) (HuVECs; Table 57)	HSL mRNA (HSL; Table 75)	PPAR gamma (mRNA expression) (PPARγ; Table 15)	Glut4 (mRNA expression) (Glut4; Table 15)	TG (triglyceride accumulation) (adipocytes; [2])	AP2 (mRNA expression) (aP2; Table 15)	HSL (mRNA expression) (HSL; Table 15)	% Activity Relative to UTC (tube formation) (HuVECs; Table 56)	other results
327917 (antisense eT*e[5mC]*eA*eA*e[5mC]*eA*eT*e[5mC]*eA*eG*eT*e[5mC]*eT*eG*eA*eT*eA*eA*eG*e[5mC]*eT*eA) [compound 327917]	54 percentage of untreated control (UTC)	15 percentage of untreated control (UTC)	26 percentage of untreated control (UTC)	32 percentage of untreated control (UTC)	82.8%	26 percentage of untreated control (UTC)	–	–	–	–	–	–	–
327919 (antisense eG*eA*eA*eA*e[5mC]*e[5mC]*e[5mC]*eA*eG*e[5mC]*eA*eG*eA*e[5mC]*eA*eA*eT*eG*eT*eA*eG*e[5mC]*eT) [compound 327919]	–	–	–	–	103.5%	–	0.52	0.32	0.58	0.79	0.57	–	PPAR gamma (mRNA expression) (PPARγ; Table 16): 0.57; Glut4 (mRNA expression) (Glut4; Table 16): 0.18; TG (triglyceride accumulation) (adipocytes; [3]): 0.40; AP2 (mRNA expression) (aP2; Table 16): 0.48; HSL (mRNA expression) (HSL; Table 16): 0.37
327899 (antisense e[5mC]*eA*eG*eT*eG*eA*eA*eT*eT*e[5mC]*eT*eA*e[5mC]*e[5mC]*eA*eG*eT*eG*e[5mC]*e[5mC]*eA*eT*eA) [compound 327899]	62 percentage of untreated control (UTC)	14 percentage of untreated control (UTC)	25 percentage of untreated control (UTC)	47 percentage of untreated control (UTC)	34.5%	27 percentage of untreated control (UTC)	–	–	–	–	–	–	–
327954 (antisense eA*e[5mC]*eA*eA*eA*eG*eT*eT*e[5mC]*eT*eG*eT*eG*eA*eT*eG*e[5mC]*eA*e[5mC]*eT*eG*eA) [compound 327954]	–	–	–	–	–	–	0.73	0.92	0.58	0.95	1.03	–	% Activity Relative to UTC (tube formation) (HuVECs; Table 59): 53.3%
327888 (antisense eA*eA*eT*eG*e[5mC]*e[5mC]*e[5mC]*e[5mC]*eT*eA*eA*eA*eA*eA*eT*e[5mC]*e[5mC]*eT*eT*eA*eT) [compound 327888]	–	–	–	–	–	–	1.36	1.37	0.98	1.18	1.38	100.0%	PPAR gamma (mRNA expression) (PPARγ; Table 16): 0.66; PPAR gamma mRNA (PPARγ): 103 percentage of untreated control (UTC); Glut4 (mRNA expression) (Glut4; Table 16): 0.17; GLUT4 mRNA (Glut4): 84 percentage of untreated control (UTC); TG (triglyceride accumulation) (adipocytes; [3]): 0.44; TG (triglyceride accumulation) (adipocytes; [4]): 132 percentage of untreated control (UTC); AP2 (mRNA expression) (aP2; Table 16): 0.47; AP2 mRNA (aP2): 102 percentage of untreated control (UTC); HSL (mRNA expression) (HSL; Table 16): 0.50; HSL mRNA (HSL): 134 percentage of untreated control (UTC)
327880 (antisense eA*e[5mC]*eA*eA*eA*eT*eT*e[5mC]*eG*eG*eT*eT*e[5mC]*eT*eA*e[5mC]*eA*eG*eG*eG*eT*eA) [compound 327880]	–	–	–	–	–	–	0.53	1.11	0.52	0.97	0.80	57.1%	–
327933 (antisense eA*eA*eG*eG*eG*eA*eT*eT*e[5mC]*e[5mC]*eT*eG*eG*eG*eA*eA*eA*eA*e[5mC]*eT*eG*eG*eA*e[5mC]) [compound 327933]	–	–	–	–	–	–	1.52	2.52	1.48	1.46	1.35	–	PPAR gamma mRNA (PPARγ): 100 percentage of untreated control (UTC); GLUT4 mRNA (Glut4): 127 percentage of untreated control (UTC); TG (triglyceride accumulation) (adipocytes; [4]): 127 percentage of untreated control (UTC); AP2 mRNA (aP2): 82 percentage of untreated control (UTC); % Activity Relative to UTC (tube formation) (HuVECs; Table 58): 59.3%; HSL mRNA (HSL): 132 percentage of untreated control (UTC)
327895 (antisense eA*e[5mC]*eA*eA*eA*e[5mC]*eA*e[5mC]*e[5mC]*eA*eT*eT*eG*eT*e[5mC]*eA*e[5mC]*eA*e[5mC]*eT*e[5mC]*e[5mC]*eA) [compound 327895]	86 percentage of untreated control (UTC)	76 percentage of untreated control (UTC)	76 percentage of untreated control (UTC)	90 percentage of untreated control (UTC)	–	88 percentage of untreated control (UTC)	–	–	–	–	–	100.0%	–
327878 (antisense e[5mC]*eT*eA*eG*eT*eG*eG*eT*e[5mC]*e[5mC]*eT*eA*eA*eA*e[5mC]*eA*eT*eT*eT*e[5mC]*eA*e[5mC]) [compound 327878]	–	–	–	–	–	–	0.97	0.69	0.65	0.85	0.93	57.1%	–
327911 (antisense eG*e[5mC]*eT*eA*e[5mC]*e[5mC]*eT*eG*e[5mC]*eA*e[5mC]*eT*eG*eT*eA*eA*eG*e[5mC]*eA*e[5mC]*eT*eT*eT*eT) [compound 327911]	75 percentage of untreated control (UTC)	48 percentage of untreated control (UTC)	59 percentage of untreated control (UTC)	76 percentage of untreated control (UTC)	75.9%	71 percentage of untreated control (UTC)	–	–	–	–	–	–	–
327885 (antisense eA*e[5mC]*eT*eA*e[5mC]*e[5mC]*eT*eG*e[5mC]*eA*e[5mC]*eT*eG*eT*eA*eA*eG*e[5mC]*eA*e[5mC]*eT*eT*eT*eG) [compound 327885]	59 percentage of untreated control (UTC)	40 percentage of untreated control (UTC)	29 percentage of untreated control (UTC)	69 percentage of untreated control (UTC)	–	57 percentage of untreated control (UTC)	–	–	–	–	–	50.0%	–
327897 (antisense eA*e[5mC]*eA*eG*eG*e[5mC]*e[5mC]*eG*eG*eG*eA*e[5mC]*eA*eA*eG*eT*eG*e[5mC]*eA*eA*eT*eA) [compound 327897]	66 percentage of untreated control (UTC)	32 percentage of untreated control (UTC)	28 percentage of untreated control (UTC)	62 percentage of untreated control (UTC)	–	39 percentage of untreated control (UTC)	–	–	–	–	–	–	% Activity Relative to UTC (tube formation) (HuVECs; Table 59): 40.0%
327918 (antisense e[5mC]*eT*eA*eG*eT*eA*e[5mC]*eA*eT*e[5mC]*eA*eT*e[5mC]*eT*eA*eT*eA*e[5mC]*eT*eG*eT*eA) [compound 327918]	74 percentage of untreated control (UTC)	66 percentage of untreated control (UTC)	65 percentage of untreated control (UTC)	91 percentage of untreated control (UTC)	96.6%	85 percentage of untreated control (UTC)	–	–	–	–	–	–	–
327877 (antisense e[5mC]*eG*e[5mC]*e[5mC]*eA*eA*eT*eA*eT*eT*eT*eA*e[5mC]*eG*eT*eG*e[5mC]*eT*eG*e[5mC]*eT*eA) [compound 327877]	–	–	–	–	–	–	–	–	–	–	–	78.6%	PPAR gamma mRNA (PPARγ): 85 percentage of untreated control (UTC); GLUT4 mRNA (Glut4): 119 percentage of untreated control (UTC); TG (triglyceride accumulation) (adipocytes; [4]): 109 percentage of untreated control (UTC); AP2 mRNA (aP2): 77 percentage of untreated control (UTC); HSL mRNA (HSL): 82 percentage of untreated control (UTC)

— patent publication US8178506B2, “Oligomeric compounds and compositions for use in modulation of small non-coding RNAs” (Regulus Therapeutics Inc., priority 2003, dated 2012)
